Tests used:
hPPARδ = biological target: T1, hPPARδ (Homo sapiens, UniProt Q03181); assay: Transfection assay (luciferase reporter, full-length PPAR plasmid) in CV-1 cells, PPARδ; assay type: cell-based; conditions: 24 hours
T1 sequence (Q03181 1-441): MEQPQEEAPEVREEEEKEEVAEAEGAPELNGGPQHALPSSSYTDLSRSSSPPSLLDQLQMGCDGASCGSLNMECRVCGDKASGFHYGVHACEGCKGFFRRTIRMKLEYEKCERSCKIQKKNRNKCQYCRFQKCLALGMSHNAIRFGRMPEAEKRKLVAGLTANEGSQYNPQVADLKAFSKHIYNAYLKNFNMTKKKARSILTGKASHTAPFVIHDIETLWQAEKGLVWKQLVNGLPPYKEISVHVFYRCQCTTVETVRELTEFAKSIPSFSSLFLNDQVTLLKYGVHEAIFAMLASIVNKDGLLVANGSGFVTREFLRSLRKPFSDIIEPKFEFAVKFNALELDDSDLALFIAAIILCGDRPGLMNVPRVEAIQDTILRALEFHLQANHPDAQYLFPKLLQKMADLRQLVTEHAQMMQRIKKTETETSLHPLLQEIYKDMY
Method: (§1) PPARδ activation effect of the compound represented by Chemical Formula I according to the present invention was identified by transfection assay. Further, selectivity test for other PPAR subtypes PPARα and PPARγ, toxicity test by MTT assay, and in vivo activity test through animal experiment were carried out. CV-1 cells were used for transfection assay. The cells were cultured in a 5% CO2 incubator at 37° C., on a 96-well plate using DMEM medium containing 10% FBS, DBS (delipidated) and 1% penicillin/streptomycin. Experiment was performed in four stages of cell inoculation, transfection, treatment with the compound of the present invention, and confirmation of result. The CV-1 cells inoculated onto a 96-well plate at 5,000 cells/well, and transfected 24 hours later. Transfection assay was performed using full-length PPAR plasmid DNA, reporter DNA having luciferase activity and thus capable of identifying PPAR activity, and β-galactosidase DNA which gives information about transfection efficiency. […] After culturing for 24 hours in an incubator, the cells were lysed using lysis buffer, and luciferase and β-galactosidase activity was measured using a luminometer and a microplate reader. The measured luciferase data were corrected using the β-galactosidase data, and were plotted to calculate the EC50 value.

hPPARα = biological target: T2, hPPARα (Homo sapiens, UniProt Q07869); assay: Transfection assay (luciferase reporter, full-length PPAR plasmid) in CV-1 cells, PPARα selectivity; assay type: cell-based; conditions: 24 hours
T2 sequence (Q07869 1-468): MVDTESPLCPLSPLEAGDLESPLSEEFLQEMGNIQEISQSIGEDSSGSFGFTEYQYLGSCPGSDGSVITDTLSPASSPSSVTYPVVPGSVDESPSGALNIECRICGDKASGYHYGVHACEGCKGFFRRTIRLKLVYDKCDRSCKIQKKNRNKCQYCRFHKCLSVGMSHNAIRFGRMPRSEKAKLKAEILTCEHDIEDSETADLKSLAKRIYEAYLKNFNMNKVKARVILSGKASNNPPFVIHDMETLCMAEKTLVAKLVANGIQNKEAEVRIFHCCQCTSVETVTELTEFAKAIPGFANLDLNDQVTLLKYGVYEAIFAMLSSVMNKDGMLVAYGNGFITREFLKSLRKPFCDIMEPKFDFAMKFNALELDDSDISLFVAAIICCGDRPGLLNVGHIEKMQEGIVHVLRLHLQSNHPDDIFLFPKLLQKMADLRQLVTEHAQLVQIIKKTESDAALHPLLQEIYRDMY
Method: as §1

hPPARγ = biological target: T3, hPPARγ (Homo sapiens, UniProt P37231); assay: Transfection assay (luciferase reporter, full-length PPAR plasmid) in CV-1 cells, PPARγ selectivity; assay type: cell-based; conditions: 24 hours
T3 sequence (P37231 1-505): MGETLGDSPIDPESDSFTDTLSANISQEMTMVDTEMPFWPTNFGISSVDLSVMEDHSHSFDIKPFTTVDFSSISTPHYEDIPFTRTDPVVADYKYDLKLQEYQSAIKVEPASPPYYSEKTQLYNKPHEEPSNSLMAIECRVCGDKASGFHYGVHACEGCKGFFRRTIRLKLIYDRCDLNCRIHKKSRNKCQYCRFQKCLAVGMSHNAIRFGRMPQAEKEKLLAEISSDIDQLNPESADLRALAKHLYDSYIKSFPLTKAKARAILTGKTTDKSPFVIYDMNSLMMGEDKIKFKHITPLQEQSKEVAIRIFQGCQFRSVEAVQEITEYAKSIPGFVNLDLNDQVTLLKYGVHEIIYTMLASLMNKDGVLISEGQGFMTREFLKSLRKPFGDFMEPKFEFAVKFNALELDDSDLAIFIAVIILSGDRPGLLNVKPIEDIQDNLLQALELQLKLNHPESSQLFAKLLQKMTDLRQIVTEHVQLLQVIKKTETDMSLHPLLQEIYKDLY
Method: as §1

[1] = Obesity inhibiting effect, high-fat feed mice; assay type: in vivo, mouse; conditions: C57BL/6 mice, 35% fat feed 60 days, 10 mg/kg/day oral
Method: In order to test in vivo effect of the compound according to the present invention, experiment was carried out using mouse. 8-week-old C57BL/6 (SLC Co.) mice were used and feed containing 35% fat was used to induce obesity. While giving the high-fat feed for 60days, vehicle, Compound S185 or Compound S186 was orally administered (10 mg/kg/day).

ApoE−/− mice = assay: Atherosclerosis inhibiting effect, ApoE−/− mice (Sudan IV arterial plaque staining); assay type: in vivo; conditions: ApoE−/− mouse, high-fat high-cholesterol feed, 2 mg/kg/day oral, 28 days
Method: (§2) In order to test atherosclerosis inhibiting effect of the compound according to the present invention, in vivo experiment was carried out using atherosclerosis animal model ApoE−/−, Ldlr−/−mice. While giving high-fat, high-cholesterol feed (20% fat, 1.25% cholesterol; AIN-93G diet), the compound of the present invention (Compound S185) was orally administered at 2 mg/kg/day. 28 days later, arterial plaque was stained using Sudan IV, and the atherosclerosis inhibiting effect was compared with the control group.

Ldlr−/− mice = assay: Atherosclerosis inhibiting effect, Ldlr−/− mice (Sudan IV arterial plaque staining); assay type: in vivo; conditions: Ldlr−/− mouse, high-fat high-cholesterol feed, 2 mg/kg/day oral, 28 days
Method: as §2

[2] = Diabetes improving effect, glucose tolerance test (GTT); assay type: in vivo, mouse; conditions: for Fasting glucose level as compared to the control group: 10 mg/kg/day oral for 57 days; for Diabetes improving effect: GTT, overall conclusion
Method: In order to test diabetes improving effect of the compound according to the present invention, glucose tolerance test (GTT) was carried out. To a mouse to which the test compound had been orally administered for 57 days, glucose (1.5 g/kg) was abdominally administered and change of blood glucose level was monitored.

mouse = assay: Muscle endurance test (treadmill) after administration during pregnancy, lactation or both; assay type: in vivo; conditions: for Body weight or growth rate of the fetus, treated versus control group / Type I muscle fiber (ATPase staining and immunostaining): 10 mg/kg/day oral during pregnancy, lactation or both; for Increase compared to control, Distance / Increase compared to control, Time: treadmill, 10 mg/kg/day oral
Method: Animal experiment was carried out in order to test muscle endurance strengthening and muscle function improving effect of the compound according to the present invention. Since muscle formation occurs mostly in the developmental stage, Compound S185 or S186 (10 mg/kg/day) was orally administered to a mouse during pregnancy, lactation or both. No difference in body weight or growth rate of the fetus was observed between the control group and the treated group. When the muscle was observed after removing the skin, the muscle of the treated group was redder than the control group. […] In order to confirm the effect of the change in the muscle fiber on improvement of muscle endurance and muscle function, test was performed using a treadmill.

C57BL/6 mouse [3] = assay: Muscle endurance and muscle function in adult exercising mice (treadmill); assay type: in vivo; conditions: 10-week-old C57BL/6 mouse, 10 mg/kg oral, treadmill exercise 30 days
Method: Further, improvement of muscle endurance and muscle function was confirmed when the compound according to the present invention was administered to an adult. 10-week-old C57BL/6 mouse was let to exercise while orally administering Compound S185 or S186 (10 mg/kg). The mouse was let to exercise on a treadmill for 30 days, once a day for 30 minutes. Exercise condition was 5 minutes at 2 m/min, 5 minutes at 5 m/min, 5 minutes at 8 m/min, followed by 5 minutes at 20 m/min. At the end of the test, muscle endurance strengthening and muscle function improving effect was tested using a treadmill.

C57BL/6 mouse [4] = assay: Memory improving effect, Morris water maze test in LPS brain disease model; assay type: in vivo
Method: Animal (8-week-old C57BL/6 mouse) experiment was carried out in order to test the effect of the compound according to the present invention of treating dementia and Parkinson's disease through improvement of memory. Before performing experiment, an animal model of brain disease was established by injecting LPS into the brain by stereotaxy. Test groups were divided depending on the administration of the test compound and exercise. Exercise condition was 5 minutes at 2 m/min, 5 minutes at 5 m/min, 5 minutes at 8 m/min, followed by 5 minutes at 20 m/min. Morris water maze test was performed at the end of the test. It was confirmed that the compound according to the present invention and exercise are effective in treating dementia and Parkinson's disease through improvement of memory.

C57BL/6 mouse [5] = assay: Fatty liver treating effect, high-fat feed mice (H&E liver staining); assay type: in vivo; conditions: 35% fat feed 78 days, 10 mg/kg/day oral
Method: Animal (8-week-old C57BL/6 mouse) experiment was carried out in order to test fatty liver treating effect of the compound according to the present invention. Feed containing 35% fat was used to induce fatty liver. While giving the high-fat feed for 78 days, Compound S185 was orally administered (10 mg/kg/day). At the end of the experiment, liver tissue was harvested and fixed in paraformaldehyde solution and then stained with hematoxylin and eosin.

[6] = administered during Pregnancy + lactation

Structure (SMILES)	EC50 (hPPARδ)	EC50 hPPARα (hPPARα)	EC50 hPPARγ (hPPARγ)	Body weight increase as compared to the vehicle group [1]	Atherosclerosis inhibiting effect improved as compared to the control group (ApoE−/− mice)	Atherosclerosis inhibiting effect improved (Ldlr−/− mice)	Fasting glucose level as compared to the control group [2]	Diabetes improving effect [2]	Body weight or growth rate of the fetus, treated versus control group (mouse)	Type I muscle fiber (ATPase staining and immunostaining) (mouse)	Increase compared to control, Distance (mouse; administered during Lactation)	Increase compared to control, Time (mouse; administered during Lactation)	Increase compared to control, Distance (mouse; [6])	Increase compared to control, Time (mouse; [6])	Increase compared to control, Distance (mouse; administered during Pregnancy)	Increase compared to control, Time (mouse; administered during Pregnancy)	Exercise time and distance as compared to the control group (C57BL/6 mouse [3])	Water maze test result (C57BL/6 mouse [4]; Exercise (o))	Water maze test result (C57BL/6 mouse [4]; Exercise (x))	Fatty liver treating effect (H&E stained liver tissue, FIG. 1) (C57BL/6 mouse [5])
Cc1cc(SCc2[se]c(-c3ccc(C(F)(F)F)cc3)nc2C)ccc1OCC(=O)O [Compound S185]	0.66 nM	ia	ia	39%	60%	36%	lower fasting glucose level	effective in improving diabetes	No difference	increased type I muscle fiber	2.6 times	2.1 times	3.9 times	3.7 times	2.7 times	2.3 times	improvement both in exercise time and distance	14 s	20 s	effective in preventing fatty liver
Cc1cc([Se]Cc2[se]c(-c3ccc(C(F)(F)F)cc3)nc2C)ccc1OCC(=O)O [Compound S186]	4.27 nM	ia	ia	42%	–	–	lower fasting glucose level	effective in improving diabetes	No difference	increased type I muscle fiber	2.0 times	1.8 times	3.3 times	3.1 times	2.1 times	2.1 times	improvement both in exercise time and distance	16 s	27 s	–
